From US10865388B2, “Method for identifying anti-cancer agents using an in vitro cell culture system that maintains cancer cell stemness” (National Taiwan University, priority 2014, dated 2020)

Assays:
Format in all cases: cell-based, human
[1] = system: CLS1/CAF; experiment: Drug resistance assay (MTT), CLS1/CAF; details: 48 h drug treatment, CLS1 co-cultured with CAFs
Description: (§1) An MTT [3-(4,5-dimethylthiazolyl-2)-2,5-diphenyltetrazolium bromide] (Sigma) assay was performed to determine cell proliferation. Briefly, CLS1/CAF and CLS1 cells were added to 96-well plates at a density of 5×10^3 cells/well. After incubating for 24 h, the cells were serum-starved overnight. The cells were then treated with different concentrations (0-50 μM) of the drugs docetaxel, cisplatin, etoposide and vinorelbine for 48 h. After 48 h, the culture medium containing 0.5 mg/ml MTT was added to each well. After 1.5 h of incubation, the medium was removed, and DMSO was added to the plates. The color intensity of the solubilized formazan was measured at 570 nm in an ELISA plate reader (Vector3; Perkin-Elmer, USA).

[2] = system: CLS1; experiment: Drug resistance assay (MTT), CLS1; details: 48 h drug treatment, CLS1 after CAF removal
Description: as §1

[3] = system: ALDH activity; experiment: ALDEFLUOR assay (flow cytometry); details: CLS1/CAFs, A549, H1975 and EKVX; IGF-II 100 ng/ml (FIG. 15)
Description: ALDH activity of cells was measured using the ALDEFLUOR assay kit (StemCell Technologies) based on the manufacturer's protocol and a previous report. Ginestier, et al., 2007. After different treatments, the cells were suspended in the ALDEFLUOR assay buffer containing the ALDH substrate BODIPY-aminoacetaldehyde (BAAA, 1 mM per 1×10^6 cells, incubate 30 min at 37° C.). As a negative control, the cell sample was treated with diethylaminobenzaldehyde (DEAB), a specific ALDH inhibitor. Nonviable cells were identified by propidium iodide staining and analysis using the FACSAria instrument (Becton Dickinson).

[4] = system: CLS1 cells; experiment: Ultra-low sphere-forming assay, CLS1; details: IGF-II 10 and 100 ng/ml, 21 days (FIG. 5b)
Description: An ultra-low sphere-forming assay was performed as previously described (Dontu, et al., 2003) and modified as the following procedures. A single-cell suspension of lung CSCs in MCDB201 serum-free medium (Invitrogen) supplemented with 20 ng/ml EGF (Sigma) and 20 ng/ml bFGF (Invitrogen) was seeded in ultra-low adherent 24-well plates (Corning, Corning, N.Y., USA; 200 viable cells/well). The medium was supplemented with fresh growth factors twice weekly. After 3 weeks, the spheres were examined under the Axiovert 200 microscope.

[5] = system: IGF1R-p/IGF1R, AKT-p/AKT and Nanog; experiment: Western blot analysis of IGF1R, AKT and Nanog; details: CLS1, CL141 and CL152; IGF-II 10 or 100 ng/ml, time-dependent (FIG. 5c)
Description: The detailed procedures were performed as described in Zoller, Nat Rev Cancer 11:254-267 (2011). The primary antibodies for p-IGF1R (Y1316, 6113S; 1:1000), p-AKT (D9E; 1:1000), AKT (927L; 1:1000) and Nanog (D73G4; 1:1000) were purchased from Cell Signaling Technology, Inc., and the primary antibody for IGF1R (C-20; 1:1000) was purchased from Santa Cruz. Monoclonal mouse anti-β-actin (Chemicon, Millipore; 1:5000) was used as a loading control. The membranes were then washed three times with TBST, followed by incubation with horseradish peroxidase (HRP)-conjugated secondary antibody (1:5,000) in TBST/2% skim milk. Bound antibody was detected using the Enhanced Chemiluminescence System (Santa Cruz, Calif.). Chemiluminescent signals were captured using the Fujifilm LAS 3000 system (Fujifilm, Tokyo, Japan). All experiments were performed at least three times in duplicate.

[6] = system: Nanog; experiment: RT Q-PCR analysis of the stem cell marker Nanog; details: for Nanog expression in CLS1 cells treated with cytokine: IGF-II 10 ng/ml, HGF 10 ng/ml, sCD14 500 ng/ml (FIG. 4f)
Description: The expression level of stemness-related genes and validation of the Affymetrix microarray data for CAF, CLS1/CAF and CLS1 were performed through RT Q-PCR using an ABI Prism 7900 Sequencer (Applied Biosystems).
TATA-box binding protein (TBP) and β-actin were used as internal controls. The expression levels were normalized to TBP and defined as −ΔCT=−[CTtarget−CTTBP]. The relative expression ratio was calculated as the fold change relative to the control (2^−ΔΔCT). The experiments were performed in triplicate.

[7] = system: lung cancer cells co-cultured with CAFs; experiment: Image-based high-content analysis of Nanog-positive cells per colony
Description: Lung CSCs or cancer cells (200 cells/well) were added to 96-well plates pre-seeded with CAFs (2000 cells/well) and were allowed to attach to the plates overnight. After different treatments, cells were processed following the immunofluorescence protocol with the Nanog (ReproCELL) (1:300) primary antibody (as the cancer stem-cell marker) and the mouse anti-human CD90 FITC-conjugated (5E10, BD Pharmingen) antibody (as the CAF marker) overnight at 4° C. Next, the primary antibodies were incubated with the TRITC-conjugated secondary antibody [goat anti-rabbit IgG (H+L) Conjugate, Invitrogen] for 2 h at room temperature. The nuclei were counterstained with the Hoechst 33342 dye (Invitrogen). To determine the background fluorescence level of the secondary antibody, each plate included control wells containing only the secondary antibody (stained with the Hoechst 33342 dye). Images of the stained cells were acquired using the automated fluorescence microscopy platform.
Image acquisition and analysis were performed as follows. Stained cells were imaged using the high-content analysis platform with a 4× objective. […] The images were analyzed using the MetaXpress® software (Molecular Devices). […] Finally, the TRITC-stained cell count and the total cell count were determined. The stemness of each colony was calculated as the ratio of Nanog-positive (TRITC-stained) cells to total cells. […]

`CCC1=C[C@@H]2CN(C1)Cc1c([nH]c3ccccc13)[C@@](C(=O)OC)(c1cc3c(cc1OC)N(C)[C@H]1[C@@](O)(C(=O)OC)[C@H](OC(C)=O)[C@]4(CC)C=CCN5CC[C@]31[C@@H]54)C2` [Vinorelbine ditartrate] was tested, and the IC50 ([1]; Homo sapiens) was 775 nM and the IC50 ([2]; Homo sapiens) was 28.5 nM.

With `N.N.[Cl][Pt][Cl]` [Cisplatin] the IC50 [1] was 310 nM and the IC50 [2] was 200 nM.

With “IGF-II: growth factor secreted by CAFs, added as cytokine to cancer cells” the ALDEFLUOR-positive ratio [3] was “increased”, the “sphere numbers and size” value [4] was “enlarged” and the “IGF1R and Akt phosphorylation and downstream Nanog expression” value [5] was “induced”. For the same compound, the Nanog expression ([6]; CLS1, A549, H1975 and H460 treated with IGF-II 100 ng/ml (FIG. 5a)) was “increased”, the “Nanog expression in CLS1 cells treated with cytokine” value [6] was “induced” and the “number of Nanog-positive cells per colony” value ([7]; IGF-II 10 and 100 ng/ml, CLS1 cells (FIG. 14b)) was “facilitated”.

In the case of `COc1cc([C@@H]2c3cc4c(cc3[C@@H](O[C@@H]3O[C@@H]5CO[C@@H](C)O[C@H]5[C@H](O)[C@H]3O)[C@H]3COC(=O)[C@H]23)OCO4)cc(OC)c1O` [Etoposide (VP-16), Etoposide], the IC50 ([1]; Homo sapiens) is reported as 109000 nM and the IC50 ([2]; Homo sapiens) is reported as 1060 nM.

For “HGF: hepatocyte growth factor, cytokine added to CLS1 cells”, the “Nanog expression in CLS1 cells treated with cytokine” value [6] was “induced”.

`CC(=O)O[C@@]12CO[C@@H]1C[C@H](O)[C@@]1(C)C(=O)[C@H](O)C3=C(C)[C@@H](OC(=O)[C@H](O)[C@@H](NC(=O)OC(C)(C)C)c4ccccc4)C[C@@](O)([C@@H](OC(=O)c4ccccc4)[C@H]21)C3(C)C` [Docetaxel] gave an IC50 ([1]; Homo sapiens) of 54.8 nM and an IC50 ([2]; Homo sapiens) of 4.2 nM.

`COc1cc([C@@H]2c3cc4c(cc3[C@H](O)[C@H]3COC(=O)[C@@H]23)OCO4)cc(OC)c1OC` [PPP, picropodophyllin] was tested, and the “Nanog-positive cells in each colony” value ([7]; A549, EKVX, CLS1, CL141 and CL152 co-cultured with CAFs, antibody 1 μg/ml, inhibitors 1 μM/ml (FIG. 6a)) was “significantly inhibited”.
